Molecules are shown by their SMILES.

In the first data set the test system is Homo sapiens. The data set can be described thus: (§1) Oral bioavailability in human. Conditions: in vivo.
Regarding `O=C(NC[C@H]1CCCCN1)c1cc(OCC(F)(F)F)ccc1OCC(F)(F)F` (stereo in doubt; 083) [(R)-FLECAINIDE], the F is listed as 95%.

`C[C@H]1COc2c(N3CCN(C)CC3)c(F)cc3c(=O)c(C(=O)O)cn1c23.C[C@H]1COc2c(N3CCN(C)CC3)c(F)cc3c(=O)c(C(=O)O)cn1c23.O` (stereo in doubt; 162) [LEVOFLOXACIN] came in with an F of 97.5%.

As for `O=C(NC[C@H]1CCCCN1)c1cc(OCC(F)(F)F)ccc1OCC(F)(F)F` (stereo in doubt; 268) [(R)-FLECAINIDE], the F was determined as 70%.

Test system in a further data set: not listed separately
The description is as §1. Conditions: in vivo.
Consider `Cc1nnc2n1-c1ccc(Cl)cc1C(c1ccccc1Cl)=NC2` [TRIAZOLAM], for which the bioavailability – broadly, dose-corrected exposure relative to a reference, in per cent – was 44%.

The compound `O=C(O[C@H]1C[C@H]2CC[C@@H](C1)[N+]21CCCC1)C(O)(c1ccccc1)c1ccccc1` [TROSPIUM] came in with a bioavailability of 9.6%.

For the compound `CCN(C(C)=O)c1cccc(-c2ccnc3c(C#N)cnn23)c1` [ZALEPLON], the bioavailability turned out to be 30%.

Consider `Cc1ccc(-c2nc3ccc(C)cn3c2CC(=O)N(C)C)cc1` [ZOLPIDEM], for which the bioavailability came out at 72%.

Still in this data set, the particulars now being: in vivo, F.
`COc1cc(Cc2cnc(N)nc2N)cc(OC)c1OC` [TRIMETHOPRIM] displayed a bioavailability of 63%.

As to `CCCC(CCC)C(=O)O` [VALPROIC ACID], the bioavailability was 90%.

Regarding `Cc1cn([C@H]2C[C@H](N=[N+]=[N-])[C@@H](CO)O2)c(=O)[nH]c1=O` [ZIDOVUDINE], the bioavailability came out at 64%.

As for `O=C1Cc2cc(CCN3CCN(c4nsc5ccccc45)CC3)c(Cl)cc2N1` [ZIPRASIDONE], the bioavailability was 60%.

(Values after ChEMBL document CHEMBL1141299, “Hologram QSAR model for the prediction of human oral bioavailability” (Bioorg Med Chem, 2007).)
